Reference: ChEMBL document CHEMBL4138148, “Discovery of novel pyrrolo-pyridine/pyrimidine derivatives bearing pyridazinone moiety as c-Met kinase inhibitors” (Eur J Med Chem, 2017)

Experiments:
[1] = system: PC-3; assay: cells; details: Homo sapiens, PC-3, 72 h
Description: Cytotoxicity against human PC3 cells assessed as reduction in cell viability after 72 hrs by MTT assay

[2] = system: HepG2; assay: cells; details: Homo sapiens, HepG2, 72 h
Description: Cytotoxicity against human HepG2 cells assessed as reduction in cell viability after 72 hrs by MTT assay

[3] = system: MCF7; assay: cells; details: Homo sapiens, MCF7, 72 h
Description: Cytotoxicity against human MCF7 cells assessed as reduction in cell viability after 72 hrs by MTT assay

[4] = system: A549; assay: cells; details: Homo sapiens, A549, 72 h
Description: Cytotoxicity against human A549 cells assessed as reduction in cell viability after 72 hrs by MTT assay

[5] = target: Hepatocyte growth factor receptor (Homo sapiens, UniProt P08581); assay: Inhibition of c-MET (unknown origin) using FAM-labeled peptide as substrate preincubated for 10 mins followed by substrate addition by mobility shift assay
Sequence of Hepatocyte growth factor receptor (P08581 whole entry): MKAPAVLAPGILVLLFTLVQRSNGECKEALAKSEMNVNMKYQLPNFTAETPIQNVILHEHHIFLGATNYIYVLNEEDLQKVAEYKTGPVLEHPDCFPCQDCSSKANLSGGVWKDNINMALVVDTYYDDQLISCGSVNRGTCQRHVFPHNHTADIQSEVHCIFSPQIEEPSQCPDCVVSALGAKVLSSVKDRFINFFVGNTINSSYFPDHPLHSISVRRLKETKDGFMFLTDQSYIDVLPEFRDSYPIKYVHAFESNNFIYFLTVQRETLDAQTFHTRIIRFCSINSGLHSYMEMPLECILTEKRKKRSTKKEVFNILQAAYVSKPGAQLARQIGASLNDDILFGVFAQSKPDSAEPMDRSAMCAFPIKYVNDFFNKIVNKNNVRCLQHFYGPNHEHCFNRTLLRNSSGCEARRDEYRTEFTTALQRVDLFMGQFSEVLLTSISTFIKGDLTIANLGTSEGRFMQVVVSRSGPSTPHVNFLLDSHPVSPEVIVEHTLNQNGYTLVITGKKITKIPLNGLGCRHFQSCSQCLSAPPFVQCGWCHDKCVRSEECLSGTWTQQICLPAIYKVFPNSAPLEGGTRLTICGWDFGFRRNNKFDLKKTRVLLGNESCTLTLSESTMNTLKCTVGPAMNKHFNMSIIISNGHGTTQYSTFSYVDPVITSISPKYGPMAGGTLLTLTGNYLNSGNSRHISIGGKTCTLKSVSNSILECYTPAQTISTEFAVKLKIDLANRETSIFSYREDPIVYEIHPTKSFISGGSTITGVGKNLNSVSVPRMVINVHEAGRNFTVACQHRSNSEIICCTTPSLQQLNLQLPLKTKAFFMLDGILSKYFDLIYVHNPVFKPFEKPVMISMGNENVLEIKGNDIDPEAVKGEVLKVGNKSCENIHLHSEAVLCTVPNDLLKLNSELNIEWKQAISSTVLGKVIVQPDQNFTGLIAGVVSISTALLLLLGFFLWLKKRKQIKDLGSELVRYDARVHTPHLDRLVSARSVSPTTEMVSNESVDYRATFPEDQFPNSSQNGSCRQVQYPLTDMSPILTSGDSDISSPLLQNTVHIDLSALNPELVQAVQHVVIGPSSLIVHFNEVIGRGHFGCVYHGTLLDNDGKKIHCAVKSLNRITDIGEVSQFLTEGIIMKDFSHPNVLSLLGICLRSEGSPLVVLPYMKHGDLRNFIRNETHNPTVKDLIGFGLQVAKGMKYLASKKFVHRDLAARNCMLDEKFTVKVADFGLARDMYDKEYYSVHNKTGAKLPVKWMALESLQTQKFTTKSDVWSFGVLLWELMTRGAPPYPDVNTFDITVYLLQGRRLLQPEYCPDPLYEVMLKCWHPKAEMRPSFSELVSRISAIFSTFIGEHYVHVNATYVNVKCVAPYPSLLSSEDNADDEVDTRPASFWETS

Structure (SMILES)	IC50 [1] [µM]	IC50 [2] [µM]	IC50 [3] [µM]	IC50 [4] [µM]	IC50 [5] [µM]
O=C(Nc1ccc(Oc2ccnc3[nH]ccc23)c(F)c1)c1nn(-c2ccccc2)ccc1=O	38.6	24.9	34.9	56.8	
Cc1cc(=O)n(-c2ccc(F)cc2)nc1C(=O)Nc1ccc(Oc2ncnc3[nH]ccc23)cc1	> 60	> 60	4.8	> 60	
Cc1cc(=O)n(-c2cccc(F)c2)nc1C(=O)Nc1ccc(Oc2ncnc3c2ccn3C)cc1	> 60	> 60	30.8	23.4	
Cn1ccc2c(Oc3ccc(NC(=O)c4nn(-c5ccc(Cl)c(C(F)(F)F)c5)ccc4=O)cc3F)ccnc21	20.9	13.5	18.4	17.7	
Cn1ccc2c(Oc3ccc(NC(=O)c4nn(-c5ccc(Cl)c(F)c5)ccc4=O)cc3)ccnc21	32.7	> 60	16.8	> 60	
O=C(Nc1ccc(Oc2ccnc3[nH]ccc23)c(F)c1)c1nn(-c2ccc(Cl)c(F)c2)ccc1=O	13.6	9.61	11.6	10.3	
O=C(Nc1ccc(Oc2ccnc3[nH]ccc23)c(F)c1)c1nn(-c2ccc(Cl)c(C(F)(F)F)c2)ccc1=O	5.5	11.9	11.6	13.4	
COc1ccc(-n2ccc(=O)c(C(=O)Nc3ccc(Oc4ccnc5c4ccn5C)cc3)n2)cc1	> 60	> 60	> 60	> 60	
Cc1cc(=O)n(-c2cccc(C(F)(F)F)c2)nc1C(=O)Nc1ccc(Oc2ncnc3[nH]ccc23)c(F)c1	15.6	26.3	11.8	35.1	
Cc1ccc(-n2nc(C(=O)Nc3ccc(Oc4ncnc5c4ccn5C)cc3)c(C)cc2=O)cc1	> 60	33.8	10.8	> 60	
Cc1cc(=O)n(-c2ccccc2OC(F)(F)F)nc1C(=O)Nc1ccc(Oc2ncnc3[nH]ccc23)cc1	22.5	22.8	32	16.2	
Cc1cc(=O)n(-c2cccc(F)c2)nc1C(=O)Nc1ccc(Oc2ncnc3[nH]ccc23)c(F)c1	6.68	23.1	32	31.4	
COc1ccc(-n2ccc(=O)c(C(=O)Nc3ccc(Oc4ccnc5[nH]ccc45)cc3)n2)cc1	> 60	50.8	21.6	53.1	
O=C(Nc1ccc(Oc2ccnc3[nH]ccc23)cc1)c1nn(-c2ccc(Br)cc2)ccc1=O	8.04	4.28	7.89	6.24	
Cc1ccc(-n2nc(C(=O)Nc3ccc(Oc4ncnc5[nH]ccc45)c(F)c3)c(C)cc2=O)cc1	20.4	18.8	18.9	18.5	
COc1ccc(-n2ccc(=O)c(C(=O)Nc3ccc(Oc4ccnc5c4ccn5C)c(F)c3)n2)cc1	> 60	> 60	> 60	> 60	
Cn1ccc2c(Oc3ccc(NC(=O)c4nn(-c5ccc(Br)cc5F)ccc4=O)cc3F)ccnc21	16.3	23.9	14.1	26.8	
Cc1cc(=O)n(-c2cccc(F)c2)nc1C(=O)Nc1ccc(Oc2ncnc3[nH]ccc23)cc1	14.6	3.18	9.67	34.8	
O=C(Nc1ccc(Oc2ccnc3[nH]ccc23)cc1)c1nn(-c2ccc(Cl)c(F)c2)ccc1=O	7.78	5.24	3.11	2.58	0.17
Cc1cc(=O)n(-c2ccccc2OC(F)(F)F)nc1C(=O)Nc1ccc(Oc2ncnc3[nH]ccc23)c(F)c1	> 60	> 60	11.7	16.2	
Cc1cc(=O)n(-c2ccc(Br)cc2F)nc1C(=O)Nc1ccc(Oc2ncnc3c2ccn3C)c(F)c1	6.67	> 60	> 60	14.4	
Cn1ccc2c(Oc3ccc(NC(=O)c4nn(-c5ccccc5)ccc4=O)cc3)ccnc21	58.2	56.2	45.1	51.7	
O=C(Nc1ccc(Oc2ccnc3[nH]ccc23)c(F)c1)c1nn(-c2ccc(Br)cc2)ccc1=O	40.8	68	11.6	> 60	
Cn1ccc2c(Oc3ccc(NC(=O)c4nn(-c5ccc(Br)cc5)ccc4=O)cc3)ccnc21	23	39.2	16.2	59.4	
Cc1cc(=O)n(-c2ccc(F)cc2)nc1C(=O)Nc1ccc(Oc2ncnc3[nH]ccc23)c(F)c1	17.3	12.8	24.5	42.4	
O=C(Nc1ccc(Oc2ccnc3[nH]ccc23)c(F)c1)c1nn(-c2ccc(Br)cc2F)ccc1=O	8.8	56.5	23.5	55.7	

Structure (SMILES)	IC50 [1] [µM]	IC50 [2] [µM]	IC50 [3] [µM]	IC50 [4] [µM]	IC50 [5] [µM]
COc1ccc(-n2ccc(=O)c(C(=O)Nc3ccc(Oc4ccnc5[nH]ccc45)c(F)c3)n2)cc1	46.4	> 60	55.4	> 60	
Cc1cc(=O)n(-c2ccc(Br)cc2F)nc1C(=O)Nc1ccc(Oc2ncnc3c2ccn3C)cc1	18.8	33.6	27.7	47.3	
Cc1cc(=O)n(-c2ccccc2Cl)nc1C(=O)Nc1ccc(Oc2ncnc3c2ccn3C)cc1	16.4	11.2	4.13	5.12	
Cc1cc(=O)n(-c2ccccc2OC(F)(F)F)nc1C(=O)Nc1ccc(Oc2ncnc3c2ccn3C)cc1	5.16	> 60	27	25.2	
O=C(Nc1ccc(Oc2ccnc3[nH]ccc23)cc1)c1nn(-c2ccc(Br)cc2F)ccc1=O	12.8	46.4	17.9	26.1	
Cc1cc(=O)n(-c2ccccc2Cl)nc1C(=O)Nc1ccc(Oc2ncnc3c2ccn3C)c(F)c1	> 60	> 60	> 60	> 60	
Cc1ccc(-n2nc(C(=O)Nc3ccc(Oc4ncnc5c4ccn5C)c(F)c3)c(C)cc2=O)cc1	50.5	> 60	> 60	> 60	
Cc1cc(=O)n(-c2ccc(Br)cc2F)nc1C(=O)Nc1ccc(Oc2ncnc3[nH]ccc23)c(F)c1	13.3	32	26.6	6.12	
Cn1ccc2c(Oc3ccc(NC(=O)c4nn(-c5ccccc5)ccc4=O)cc3F)ccnc21	> 60	> 60	> 60	> 60	
Cc1cc(=O)n(-c2cccc(F)c2)nc1C(=O)Nc1ccc(Oc2ncnc3c2ccn3C)c(F)c1	8.99	> 60	> 60	> 60	
Cn1ccc2c(Oc3ccc(NC(=O)c4nn(-c5ccc(Cl)cc5)ccc4=O)cc3F)ccnc21	> 60	> 60	> 60	> 60	
Cn1ccc2c(Oc3ccc(NC(=O)c4nn(-c5ccc(Cl)cc5)ccc4=O)cc3)ccnc21	> 60	> 60	> 60	> 60	
O=C(Nc1ccc(Oc2ccnc3[nH]ccc23)cc1)c1nn(-c2ccc(Cl)cc2)ccc1=O	32.4	19.5	10.6	25.1	
Cc1cc(=O)n(-c2ccccc2OC(F)(F)F)nc1C(=O)Nc1ccc(Oc2ncnc3c2ccn3C)c(F)c1	> 60	> 60	> 60	> 60	
Cc1cc(=O)n(-c2ccccc2C(F)(F)F)nc1C(=O)Nc1ccc(Oc2ncnc3c2ccn3C)c(F)c1	25.9	> 60	> 60	35.4	
Cc1cc(=O)n(-c2ccccc2C(F)(F)F)nc1C(=O)Nc1ccc(Oc2ncnc3c2ccn3C)cc1	19.1	27.2	7.84	5.86	
Cc1ccc(-n2nc(C(=O)Nc3ccc(Oc4ncnc5[nH]ccc45)cc3)c(C)cc2=O)cc1	9.61	7.46	3.62	6.4	27
Cn1ccc2c(Oc3ccc(NC(=O)c4nn(-c5ccc(Cl)c(F)c5)ccc4=O)cc3F)ccnc21	17.9	22.1	16.6	> 60	
Cn1ccc2c(Oc3ccc(NC(=O)c4nn(-c5ccc(Br)cc5)ccc4=O)cc3F)ccnc21	> 60	> 60	33.6	> 60	
Cn1ccc2c(Oc3ccc(NC(=O)c4nn(-c5ccc(Cl)c(C(F)(F)F)c5)ccc4=O)cc3)ccnc21	10.3	23.4	15.2	11.4	
Cc1cc(=O)n(-c2cccc(C(F)(F)F)c2)nc1C(=O)Nc1ccc(Oc2ncnc3[nH]ccc23)cc1	3.46	9.47	4.56	7.57	
O=C(Nc1ccc(Oc2ccnc3[nH]ccc23)c(F)c1)c1nn(-c2ccc(Cl)cc2)ccc1=O	42.5	> 60	> 60	> 60	
O=C(Nc1ccc(Oc2ccnc3[nH]ccc23)cc1)c1nn(-c2ccccc2)ccc1=O	15	17.8	15.6	10.5	
Cn1ccc2c(Oc3ccc(NC(=O)c4nn(-c5ccc(Br)cc5F)ccc4=O)cc3)ccnc21	20.5	31.2	19.8	35.7	
Cc1cc(=O)n(-c2ccc(Br)cc2F)nc1C(=O)Nc1ccc(Oc2ncnc3[nH]ccc23)cc1	2.73	3.66	3.21	3.77	20.7
